Source: patent publication US20160120877A1, “PHARMACEUTICAL COMPOSITIONS FOR SUSTAINED DELIVERY OF BENZODIAZEPINE ANTAGONISTS” (priority 2010, published 2016)

Legend:
Assay type in all cases: physicochemical
[1] = Dialysis diffusion: effect of concentration and sample size (same quantity of flumazenil)
Protocol: (§1) Dialysis tubing cellulose membrane was cut into approximately 8 cm lengths, washed with hot water for 3 hours. Tubing was then treated with 0.3% (w/v) solution of sodium sulfide at 80° C. for 1 minute, washed with hot water (60° C.) for 2 minutes and followed by acidification with 0.2% sulfuric acid. Tubing was then rinsed with hot water to remove the acid. Test formulations were added, the tubing closed with nylon closures and placed in the dialysate. At various time periods, the dialysate was sampled and the flumazenil released measured by HPLC assay.
Experiments were conducted to test the effect of different concentrations and different sample sizes (but same quantity of flumazenil) on diffusion rate.
(§2) As described in 1.1 with 600 ml of phosphate buffer pH 4.0 as dialysate.
(§3) A=0.25 g of a 1.5% flumazenil solution in NMP
B=0.125 g of a 3% flumazenil solution in NMP
C=0.083 g of a 4.5% flumazenil solution in NMP

[2] = Dialysis diffusion: effect of sample size
Protocol: as §1
Experiments were conducted to test the influence of sample size on diffusion rate.
as §2
A=0.125 g of a 3% flumazenil solution in NMP
B=0.250 g of a 3% flumazenil solution in NMP
C=0.500 g of a 3% flumazenil solution in NMP

[3] = Dialysis diffusion: effect of sample concentration
Protocol: as §1
Experiments were conducted to test the effect of sample concentration on diffusion rate.
as §2, §3
B=0.25 g of a 3.0% flumazenil solution in NMP
C=0.25 g of a 4.5% flumazenil solution in NMP

Compound: CCOC(=O)c1ncn2c1CN(C)C(=O)c1cc(F)ccc1-2 [flumazenil, ethyl 8-fluoro-5,6-dihydro-5-methyl-6-oxo-4H-imidazo[1,5-a](1,4)benzodiazepine-3-carboxylate]
- % flumazenil released ([1]; sample C1 (0.083 g of 4.5% solution in NMP), 6 h): 100.7%
- % flumazenil released ([1]; sample C2 (0.083 g of 4.5% solution in NMP), 1 h): 43.5%
- % flumazenil released ([1]; sample C2 (0.083 g of 4.5% solution in NMP), 2 h): 66.1%
- % flumazenil released ([1]; sample C2 (0.083 g of 4.5% solution in NMP), 3 h): 82.3%
- % flumazenil released ([1]; sample C2 (0.083 g of 4.5% solution in NMP), 4 h): 93.6%
- % flumazenil released ([1]; sample C2 (0.083 g of 4.5% solution in NMP), 5 h): 99.2%
- % flumazenil released ([1]; sample C2 (0.083 g of 4.5% solution in NMP), 6 h): 101.2%
- precipitation in bags during the dialysis ([1]; sample C (0.083 g of 4.5% solution in NMP), rank A < B < C): precipitation was observed
- % flumazenil released ([2]; sample A1 (0.125 g of 3% solution in NMP), 1 h): 85.8%
- % flumazenil released ([2]; sample A1 (0.125 g of 3% solution in NMP), 2 h): 94.9%
- % flumazenil released ([2]; sample A1 (0.125 g of 3% solution in NMP), 4 h): 100.1%
- % flumazenil released ([2]; sample A1 (0.125 g of 3% solution in NMP), 6 h): 101.8%
- % flumazenil released ([2]; sample A1 (0.125 g of 3% solution in NMP), 24 h): 101.6%
- % flumazenil released ([2]; sample A2 (0.125 g of 3% solution in NMP), 1 h): 77.9%
- % flumazenil released ([2]; sample A2 (0.125 g of 3% solution in NMP), 2 h): 90.8%
- % flumazenil released ([2]; sample A2 (0.125 g of 3% solution in NMP), 4 h): 99.1%
- % flumazenil released ([2]; sample A2 (0.125 g of 3% solution in NMP), 6 h): 101.3%
- % flumazenil released ([2]; sample A2 (0.125 g of 3% solution in NMP), 24 h): 102.0%
- % flumazenil released ([2]; sample B1 (0.250 g of 3% solution in NMP), 1 h): 50.9%
- % flumazenil released ([2]; sample B1 (0.250 g of 3% solution in NMP), 2 h): 64.7%
- % flumazenil released ([2]; sample B1 (0.250 g of 3% solution in NMP), 4 h): 87.0%
- % flumazenil released ([2]; sample B1 (0.250 g of 3% solution in NMP), 6 h): 96.3%
- % flumazenil released ([2]; sample B1 (0.250 g of 3% solution in NMP), 24 h): 101.3%
- % flumazenil released ([2]; sample B2 (0.250 g of 3% solution in NMP), 1 h): 50.9%
- % flumazenil released ([2]; sample B2 (0.250 g of 3% solution in NMP), 2 h): 65.2%
- % flumazenil released ([2]; sample B2 (0.250 g of 3% solution in NMP), 4 h): 87.6%
- % flumazenil released ([2]; sample B2 (0.250 g of 3% solution in NMP), 6 h): 97.8%
- % flumazenil released ([2]; sample B2 (0.250 g of 3% solution in NMP), 24 h): 101.3%
- % flumazenil released ([2]; sample C1 (0.500 g of 3% solution in NMP), 1 h): 36.6%
- % flumazenil released ([2]; sample C1 (0.500 g of 3% solution in NMP), 2 h): 45.5%
- % flumazenil released ([2]; sample C1 (0.500 g of 3% solution in NMP), 4 h): 59.3%
- % flumazenil released ([2]; sample C1 (0.500 g of 3% solution in NMP), 6 h): 70.4%
- % flumazenil released ([2]; sample C1 (0.500 g of 3% solution in NMP), 24 h): 100.8%
- % flumazenil released ([2]; sample C2 (0.500 g of 3% solution in NMP), 1 h): 46.5%
- % flumazenil released ([2]; sample C2 (0.500 g of 3% solution in NMP), 2 h): 56.0%
- % flumazenil released ([2]; sample C2 (0.500 g of 3% solution in NMP), 4 h): 71.1%
- % flumazenil released ([2]; sample C2 (0.500 g of 3% solution in NMP), 6 h): 83.1%
- % flumazenil released ([2]; sample C2 (0.500 g of 3% solution in NMP), 24 h): 101.0%
- % flumazenil released ([3]; sample A1 (0.25 g of 1.5% solution in NMP), 1 h): 92.9%
- % flumazenil released ([3]; sample A1 (0.25 g of 1.5% solution in NMP), 2 h): 100.5%
- % flumazenil released ([3]; sample A1 (0.25 g of 1.5% solution in NMP), 3 h): 101.4%
- % flumazenil released ([3]; sample A2 (0.25 g of 1.5% solution in NMP), 1 h): 89.8%
- % flumazenil released ([3]; sample A2 (0.25 g of 1.5% solution in NMP), 2 h): 100%
- % flumazenil released ([3]; sample A2 (0.25 g of 1.5% solution in NMP), 3 h): 101.4%
- precipitation during the dialysis ([3]; sample A (0.25 g of 1.5% solution in NMP)): no precipitation was observed
- % flumazenil released ([3]; sample B1 (0.25 g of 3.0% solution in NMP), 1 h): 62.1%
- % flumazenil released ([3]; sample B1 (0.25 g of 3.0% solution in NMP), 2 h): 74.8%
- % flumazenil released ([3]; sample B2 (0.25 g of 3.0% solution in NMP), 1 h): 62.0%
- % flumazenil released ([3]; sample B2 (0.25 g of 3.0% solution in NMP), 2 h): 76.3%
- precipitation during the dialysis ([3]; sample B (0.25 g of 3.0% solution in NMP)): Precipitation was observed
- % flumazenil released ([3]; sample C1 (0.25 g of 4.5% solution in NMP), 1 h): 27.5%
- % flumazenil released ([3]; sample C1 (0.25 g of 4.5% solution in NMP), 2 h): 40.4%
- % flumazenil released ([3]; sample C2 (0.25 g of 4.5% solution in NMP), 1 h): 29.1%
- % flumazenil released ([3]; sample C2 (0.25 g of 4.5% solution in NMP), 2 h): 43.0%
- precipitation during the dialysis ([3]; sample C (0.25 g of 4.5% solution in NMP)): Precipitation was observed
